Test: Miscibility and mixing stability in formulations
Type: physicochemical

Measured: miscibility and mixing stability

CC(CC(=O)NCCOCCOCCNC(=O)CC(C)CC(C)(C)C)CC(C)(C)C (stereo not drawn) [Compound (K)]
excellent: O/W cream of Example 2, 3.5% | hair liquid composition of Example 4, 1.0% | night cream of Example 5, 10.0% | shampoo of Example 3, 2.0% | skin lotion of Example 1, 1.0% | sunscreen emulsion of Example 6, 3.0%

Reference: patent US7550135B2, “Composition for external application” (Kao Corporation, priority 2001, dated 2009)
